According to patent publication US20060269482A1 (priority 2005, published 2006):

Test system: Rb phosphorylation in MTLn3 tumors
Test: Rb phosphorylation in rat MTLn3 tumor xenografts after a single oral dose
Assay type: in vivo
Conditions: single oral dose 80 mg/kg, Western blot
Protocol: The dose selected was 80 mg/kg, determined to be an efficacious dose in this animal model. Tumor growth inhibition in the MTLn3 xenograft model after 2 to 3 weeks of oral dosing at 80 mg/kg once weekly averaged 90% with 2/10 complete regressions. COMPOUND A was dosed on day 10 post implantation of cells, at which time the tumors were 100-200 mm^3 in size. In this pharmacokinetic/pharmacodynamic experiment, plasma and tumors were collected at 1, 2, 6, 24 and 72 hours post dosing of a single oral dose of COMPOUND A. Tumors were removed and immediately snap frozen in liquid nitrogen and stored at −80° C. until drug concentration analysis. […] Concentrations of COMPOUND A in plasma and tumors were determined in the same three animals per time point. […] Peripheral blood mononuclear cells (PBMCs) were isolated, stimulated ex vivo with mitogen and analyzed by Western blot as described below.
In a second pharmacodynamic study, plasma concentrations of COMPOUND A were similarly analyzed as described above, and Rb phosphorylation in both PBMCs and tumor xenografts treated with a single oral dose of COMPOUND A was examined.
PBMCs were collected by transferring the cells, including attached cells and those in suspension, into 50 ml tubes. […] For Western blotting, total Rb was detected using antibody from Pharmingen (BD Bioscience, San Diego, Calif.) at a dilution of 1:2000. […]

## COc1ccc(F)c(F)c1C(=O)c1cnc(NC2CCN(S(C)(=O)=O)CC2)nc1N [COMPOUND A, [4-amino-2-(1-methanesulfonylpiperidin-4-ylamino)pyrimidin-5-yl]-(2,3-difluoro-6-methoxyphenyl)methanone]
  Rb phosphorylation (serine 807/811) in tumor xenografts: reduction in phosphorylation of Rb
